± gives the standard deviation of the averaged measurements.
Columns and labels:
[1] = compound: C[C@@H](Oc1cc(-c2cnn(C3CCNCC3)c2)cnc1N)c1c(Cl)ccc(F)c1Cl; test: surviving fraction relative to DMSO-only wells; higher = less growth inhibition; details: exposure time: 5 days
Procedure, shortened: (§1)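 Viability values are CellTiter-Glo luminescence readings, given as surviving fraction against the median of DMSO-only wells. The readings were taken after 10 minutes at room temperature, following five days of continuous exposure to inhibitors at 0.5, 1, 5, 10, 50, 100, 500 and 1000 nM that began 24 hours after log-phase tumour cell lines were seeded at 250–500 cells per well in 384-well plates. Every line was screened three times and kept only if replicate Pearson r >0.7 and median Z' >0.3.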

[2] = compound: COc1cc2ncnc(Nc3ccc(F)c(Cl)c3)c2cc1NC(=O)/C=C/CN1CCCCC1; test: as above; details: exposure time: 5 days
Procedure, shortened: as §1

Test System	surviving fraction ([1]; 0.5 nM)	surviving fraction ([1]; 1 nM)	surviving fraction ([1]; 10 nM)	surviving fraction ([1]; 50 nM)	surviving fraction ([1]; 500 nM)	surviving fraction ([2]; 0.5 nM)	surviving fraction ([2]; 1 nM)	surviving fraction ([2]; 5 nM)	surviving fraction ([2]; 10 nM)	surviving fraction ([2]; 50 nM)	surviving fraction ([2]; 100 nM)	surviving fraction ([2]; 500 nM)	surviving fraction ([2]; 1000 nM)	surviving fraction ([1]; 5 nM)	surviving fraction ([1]; 1000 nM)	surviving fraction ([1]; 100 nM)
SKBR3 BREAST	0.731 ± 0.039	0.814 ± 0.075	0.859 ± 0.071	0.997 ± 0.12	0.759 ± 0.035	0.879 ± 0.038	0.983 ± 0.089	0.522 ± 0.041	0.471 ± 0.03	0.195 ± 0.0032	0.161 ± 0.017	0.145 ± 0.018	0.105 ± 0.018			
SNU475 LIVER	0.8177 ± 0.0046			0.927 ± 0.039	0.853 ± 0.031	0.967 ± 0.017	0.96 ± 0.017	0.92 ± 0.037	0.927 ± 0.086	0.897 ± 0.022	0.895 ± 0.05	0.698 ± 0.038	0.481 ± 0.028	0.829 ± 0.049	0.662 ± 0.04	
SUM44 BREAST	0.865 ± 0.038	0.874 ± 0.056	0.935 ± 0.029		0.892 ± 0.077	1.01 ± 0.028	1.03 ± 0.031	1.01 ± 0.05	1.01 ± 0.053	1.03 ± 0.06	1.07 ± 0.018	0.916 ± 0.044	0.727 ± 0.0096	0.983 ± 0.021	0.798 ± 0.046	1.04 ± 0.026
SUM149 BREAST	0.897 ± 0.12	0.877 ± 0.094	0.86 ± 0.045		0.73 ± 0.064	1.03 ± 0.095	1.03 ± 0.061	0.851 ± 0.04	0.747 ± 0.044	0.515 ± 0.056	0.395 ± 0.091	0.362 ± 0.013	0.341 ± 0.071		0.415 ± 0.029	0.893 ± 0.1
SUM149.B1*.S BREAST	0.902 ± 0.028	0.898 ± 0.036	0.904 ± 0.04	0.96 ± 0.032	0.855 ± 0.056	1.06 ± 0.066	1.03 ± 0.035	1.02 ± 0.02	1.03 ± 0.043	0.962 ± 0.026	0.977 ± 0.036	0.833 ± 0.026	0.914 ± 0.043	0.921 ± 0.037	0.729 ± 0.051	0.929 ± 0.037
SUM159 BREAST	1.07 ± 0.2	1.07 ± 0.17	1.05 ± 0.16	1.07 ± 0.19	1.04 ± 0.19	1.08 ± 0.076	1.14 ± 0.16	1.1 ± 0.14	1.13 ± 0.2	1.06 ± 0.065	0.931 ± 0.14	1.01 ± 0.052	0.984 ± 0.017	1.07 ± 0.18	0.94 ± 0.086	0.984 ± 0.06
SYO1 SYNOVIAL	0.814 ± 0.068	0.821 ± 0.064	0.781 ± 0.027	0.904 ± 0.01	0.26 ± 0.063	0.9794 ± 0.0088	0.993 ± 0.068	0.91 ± 0.023	0.929 ± 0.048	0.971 ± 0.055	0.974 ± 0.039	0.784 ± 0.018	0.422 ± 0.022	0.822 ± 0.031	0.123 ± 0.0083	0.829 ± 0.036
T47D BREAST	0.912 ± 0.03	0.949 ± 0.026	0.95 ± 0.026	1.02 ± 0.038		1.03 ± 0.044	1.11 ± 0.045	1.07 ± 0.041	1.04 ± 0.027	1.043 ± 0.0096	1.07 ± 0.034	1.05 ± 0.05	1.02 ± 0.046	0.938 ± 0.049	0.856 ± 0.041	1.03 ± 0.059
U2OS BONE	0.938 ± 0.047	0.974 ± 0.027			0.474 ± 0.02	1.03 ± 0.023	1.03 ± 0.025	1.02 ± 0.025	1.01 ± 0.038	1.04 ± 0.015	1.06 ± 0.027	0.906 ± 0.033	0.798 ± 0.034	0.98 ± 0.028	0.472 ± 0.012	0.976 ± 0.052
VCAP PROSTATE		0.919 ± 0.097	1.01 ± 0.031	1.08 ± 0.055	0.429 ± 0.027	0.95 ± 0.04	0.769 ± 0.036	0.967 ± 0.08	1.04 ± 0.12	1.04 ± 0.048	0.996 ± 0.14	0.725 ± 0.078	0.406 ± 0.025	1.02 ± 0.091	0.143 ± 0.0055	0.897 ± 0.061
VP229 BREAST	0.809 ± 0.029		0.777 ± 0.12	1.08 ± 0.098		1.02 ± 0.1	1.18 ± 0.056	0.663 ± 0.12	0.638 ± 0.086	0.306 ± 0.011	0.287 ± 0.026	0.2307 ± 0.00058	0.191 ± 0.029	0.95 ± 0.11	0.544 ± 0.024	

Source: the supplement of paper PMC6045584
